This passage reports IC50 results from patent US20250215029A1 (Recludix Pharma, Inc., priority 2022, published 2025).

A value given as a limit tells only on which side of the number the result lay.

The target in this assay is T1, pY705-STAT3 in PBMC (Homo sapiens, UniProt P40763).
T1 construct: Cryopreserved Peripheral Blood Mononuclear Cells (PBMC) are from AllCells; host or cells: cryopreserved PBMC
T1 sequence (P40763 whole entry): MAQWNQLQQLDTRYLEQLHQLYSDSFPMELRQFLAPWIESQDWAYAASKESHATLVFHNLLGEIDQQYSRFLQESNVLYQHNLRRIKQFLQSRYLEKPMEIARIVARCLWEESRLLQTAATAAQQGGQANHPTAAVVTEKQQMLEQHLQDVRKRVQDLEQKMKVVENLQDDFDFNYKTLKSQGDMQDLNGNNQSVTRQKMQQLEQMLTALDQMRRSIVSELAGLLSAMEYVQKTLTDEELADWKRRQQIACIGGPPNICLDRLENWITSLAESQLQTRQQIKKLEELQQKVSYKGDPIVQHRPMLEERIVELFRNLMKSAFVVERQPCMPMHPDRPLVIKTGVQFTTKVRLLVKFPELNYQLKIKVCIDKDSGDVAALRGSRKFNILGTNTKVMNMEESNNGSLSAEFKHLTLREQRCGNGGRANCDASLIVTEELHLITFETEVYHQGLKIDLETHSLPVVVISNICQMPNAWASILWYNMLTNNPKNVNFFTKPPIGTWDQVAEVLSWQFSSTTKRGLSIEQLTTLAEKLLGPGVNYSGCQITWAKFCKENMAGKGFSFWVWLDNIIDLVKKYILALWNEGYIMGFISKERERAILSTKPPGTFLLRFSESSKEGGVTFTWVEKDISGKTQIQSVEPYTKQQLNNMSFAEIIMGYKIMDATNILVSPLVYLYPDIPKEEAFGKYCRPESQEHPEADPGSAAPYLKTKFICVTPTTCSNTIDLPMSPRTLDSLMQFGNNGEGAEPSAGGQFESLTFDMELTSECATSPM
Nature of the assay: MSD-pSTAT-PBMC Assay (pSTAT3, IL-6 stimulated). It is filed as cell-based. The following applies: PBMC, compound 3 hrs, then 10 ng/mL IL-6 for 10 min; Table 115; read-out: STAT3. The procedure, abridged: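 PBMC (human, cryopreserved, overnight recovery) + cpd 3 hrs → IL-6 10 ng/mL (STAT3) or IL-4 1 ng/mL (STAT6) ×10 min → lysis with protease/phosphatase inhibitors → MSD capture/phospho detection. IC50, variable slope, DMSO-normalized.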
Regarding `CCCOC(=O)[C@H](C)NP(=O)(Cc1ccc2sc(C(=O)N[C@H]3CCC[C@H]4CC[C@@H](C(=O)N5CC(c6cnccc6N6CCC6)C5)N4C3=O)cc2c1)Oc1ccccc1` (stereo partly drawn) [Compound 1031, propyl (((2-(((3S,6S,9aS)-3-(3-(4-(azetidin-1-yl)pyridin-3-yl)azetidine-1-carbonyl)-5-oxooctahydro-1H-pyrrolo[1,2-a]azepin-6-yl)carbamoyl)benzo [b]thiophen-5-yl)methyl)(phenoxy)phosphoryl)-L-alaninate], the IC50 was below 100 nM.

As for `CCCOC(=O)[C@H](C)NP(=O)(Cc1ccc2sc(C(=O)N[C@H]3CCC[C@H]4CC[C@@H](C(=O)N5CC(c6cnccc6N6CCOCC6)C5)N4C3=O)cc2c1)Oc1ccccc1` (stereo partly drawn) [Compound 1038, propyl (((2-(((3S,6S,9aS)-3-(3-(4-morpholinopyridin-3-yl)azetidine-1-carbonyl)-5-oxooctahydro-1H-pyrrolo[1,2-a]azepin-6-yl)carbamoyl)benzo [b]thiophen-5-yl)methyl)(phenoxy)phosphoryl)-L-alaninate], the IC50 was below 100 nM. As to `CCCOC(=O)[C@H](C)NP(=O)(Oc1ccccc1)C(F)c1ccc2sc(C(=O)N[C@H]3CCC[C@H]4CC[C@@H](C(=O)N5CC(c6cncnc6OC)C5)N4C3=O)cc2c1` (stereo partly drawn) [Compound 1042, propyl ((fluoro(2-(((3S,6S,9aS)-3-(3-(4-methoxypyrimidin-5-yl)azetidine-1-carbonyl)-5-oxooctahydro-1H-pyrrolo[1,2-a]azepin-6-yl)carbamoyl)benzo [b]thiophen-5-yl)methyl)(phenoxy)phosphoryl)-L-alaninate], the IC50 fell in the range of 100 to 1000 nM. Under `CCCOC(=O)[C@H](C)NP(=O)(Oc1ccccc1)C(F)c1ccc2sc(C(=O)N[C@H]3CCC[C@H]4CC[C@@H](C(=O)N5CC(c6cncnc6N(C)C)C5)N4C3=O)cc2c1` (some centres unmarked) [Compound 1043] stands below 100 nM.

As to `CCCOC(=O)[C@H](C)NP(=O)(Oc1ccccc1)[C@@H](F)c1ccc2sc(C(=O)N[C@H]3CCC[C@H]4CC[C@@H](C(=O)N5CC(c6cncc(F)c6O)C5)N4C3=O)cc2c1` (stereo partly drawn) [Compound 1060, propyl (((R)-fluoro(2-(((3S,6S,9aS)-3-(3-(5-fluoro-4-hydroxypyridin-3-yl)azetidine-1-carbonyl)-5-oxooctahydro-1H-pyrrolo[1,2-a]azepin-6-yl)carbamoyl)benzo [b]thiophen-5-yl)methyl)(phenoxy)phosphoryl)-L-alaninate], the IC50 lay in the range of 100 to 1000 nM. The same measure for `CCCOC(=O)[C@H](C)NP(=O)(Oc1ccccc1)[C@H](F)c1ccc2sc(C(=O)N[C@H]3CCC[C@H]4CC[C@@H](C(=O)N5CC(c6cnccc6N6CC(C#N)C6)C5)N4C3=O)cc2c1` (stereo partly drawn) [Compound 1061, propyl (((S)-(2-(((3S,6S,9aS)-3-(3-(4-(3-cyanoazetidin-1-yl)pyridin-3-yl)azetidine-1-carbonyl)-5-oxooctahydro-1H-pyrrolo[1,2-a]azepin-6-yl)carbamoyl)benzo [b]thiophen-5-yl)fluoromethyl) (phenoxy)phosphoryl)-L-alaninate]: 100 to 1000 nM; for `CCCOC(=O)[C@H](C)NP(=O)(Oc1ccccc1)[C@@H](F)c1ccc2sc(C(=O)N[C@H]3CCC[C@H]4CC[C@@H](C(=O)N5CC(c6cnccc6N6CC(OC)C6)C5)N4C3=O)cc2c1` (stereo partly drawn) [Compound 1062, propyl (((R)-fluoro(2-(((3S,6S,9aS)-3-(3-(4-(3-methoxyazetidin-1-yl)pyridin-3-yl)azetidine-1-carbonyl)-5-oxooctahydro-1H-pyrrolo[1,2-a]azepin-6-yl)carbamoyl)benzo [b]thiophen-5-yl)methyl)(phenoxy)phosphoryl)-L-alaninate]: 100 to 1000 nM; for `CCCOC(=O)[C@H](C)NP(=O)(Oc1ccccc1)[C@H](F)c1ccc2sc(C(=O)N[C@H]3CCC[C@H]4CC[C@@H](C(=O)N5CC(c6cnccc6N6CC(OC)C6)C5)N4C3=O)cc2c1` (stereo partly drawn) [Compound 1063, propyl (((S)-fluoro(2-(((3S,6S,9aS)-3-(3-(4-(3-methoxyazetidin-1-yl)pyridin-3-yl)azetidine-1-carbonyl)-5-oxooctahydro-1H-pyrrolo[1,2-a]azepin-6-yl)carbamoyl)benzo [b]thiophen-5-yl)methyl)(phenoxy)phosphoryl)-L-alaninate]: below 100 nM.

As to `CCCOC(=O)[C@H](C)NP(=O)(Oc1ccccc1)[C@@H](F)c1ccc2sc(C(=O)N[C@H]3CCC[C@H]4CC[C@@H](C(=O)N5CC(c6cnccc6N6CCOCC6)C5)N4C3=O)cc2c1` (stereo partly drawn) [Compound 1064, propyl (((R)-fluoro(2-(((3S,6S,9aS)-3-(3-(4-morpholinopyridin-3-yl)azetidine-1-carbonyl)-5-oxooctahydro-1H-pyrrolo[1,2-a]azepin-6-yl)carbamoyl)benzo [b]thiophen-5-yl)methyl)(phenoxy)phosphoryl)-L-alaninate], the IC50 is below 100 nM.

With `CCCOC(=O)[C@H](C)NP(=O)(Oc1ccccc1)[C@H](F)c1ccc2sc(C(=O)N[C@H]3CCC[C@H]4CC[C@@H](C(=O)N5CC(c6cnccc6N6CCOCC6)C5)N4C3=O)cc2c1` (stereo partly drawn) [Compound 1065, propyl (((S)-fluoro(2-(((3S,6S,9aS)-3-(3-(4-morpholinopyridin-3-yl)azetidine-1-carbonyl)-5-oxooctahydro-1H-pyrrolo[1,2-a]azepin-6-yl)carbamoyl)benzo [b]thiophen-5-yl)methyl)(phenoxy)phosphoryl)-L-alaninate], the IC50 was below 100 nM. The same measure for `CCCOC(=O)[C@H](C)NP(=O)(Oc1ccccc1)[C@@H](F)c1ccc2sc(C(=O)N[C@H]3CCC[C@H]4CC[C@@H](C(=O)N5CC(c6cncnc6N6CCOCC6)C5)N4C3=O)cc2c1` (stereo partly drawn) [Compound 1066, propyl (((R)-fluoro(2-(((3S,6S,9aS)-3-(3-(4-morpholino-pyrimidin-5-yl)azetidine-1-carbonyl)-5-oxooctahydro-1H-pyrrolo[1,2-a]azepin-6-yl)carbamoyl)benzo [b]thiophen-5-yl)methyl)(phenoxy)phosphoryl)-L-alaninate]: 100 to 1000 nM; for `CCCOC(=O)[C@H](C)NP(=O)(Oc1ccccc1)[C@H](F)c1ccc2sc(C(=O)N[C@H]3CCC[C@H]4CC[C@@H](C(=O)N5CC(c6cncnc6N6CCOCC6)C5)N4C3=O)cc2c1` (stereo partly drawn) [Compound 1067, propyl (((S)-fluoro(2-(((3S,6S,9aS)-3-(3-(4-morpholinopyrimidin-5-yl)azetidine-1-carbonyl)-5-oxooctahydro-1H-pyrrolo[1,2-a]azepin-6-yl)carbamoyl)benzo [b]thiophen-5-yl)methyl)(phenoxy)phosphoryl)-L-alaninate]: 100 to 1000 nM; for `CCCOC(=O)[C@H](C)NP(=O)(Oc1ccccc1)[C@H](F)c1ccc2sc(C(=O)N[C@H]3CCC[C@H]4CC[C@@H](C(=O)N5CC(c6cncnc6N(C)C)C5)N4C3=O)cc2c1` (some centres unmarked) [Compound 1068]: below 100 nM. Under `CCCOC(=O)[C@H](C)NP(=O)(Oc1ccccc1)[C@@H](F)c1ccc2sc(C(=O)N[C@H]3CCC[C@H]4CC[C@@H](C(=O)N5CC(c6cncnc6N(C)C)C5)N4C3=O)cc2c1` (some centres unmarked) [Compound 1069] stands below 100 nM.
